Experimental data as given in US20210278408A1, “METHODS OF TREATMENT OF CANCER WITH SUBSTITUTED PYRROLE AND PYRAZOLE COMPOUNDS AND DIAGNOSIS OF CANCERS SUSCEPTIBLE TO TREATMENT WITH SUBSTITUTED PYRROLE AND PYRAZOLE COMPOUNDS” (Bantam Pharmaceutical, LLC, priority 2018, published 2021).
Counter-ions that a name gives are not always drawn.

System: BJAB (malignant human B-cell-line)
Assay: BJAB cell proliferation
Type: cell-based
Conditions: BJAB (malignant human B-cell-line) cell proliferation, EC50; read-out: BJAB
Excerpt: In certain embodiments, the therapeutic compound is one of the compounds of the compound table below. […] In certain embodiments, the therapeutic compound is a compound having an activity as “A,” “B” or “C” in the table below. In certain embodiments, the therapeutic compound is a compound having an activity as “A” or “B” in the table below. In certain embodiments, the therapeutic compound is a compound having an activity as “A” in the table below.
In certain embodiments, the therapeutic compound is one of the compounds of the compound table below, optionally provided as a pharmaceutically-acceptable salt or N-oxide, and/or a solvate or hydrate. […] In certain embodiments, the therapeutic compound is a compound having an activity as “A,” “B” or “C” in the table below. In certain embodiments, the therapeutic compound is a compound having an activity as “A” or “B” in the table below. In certain embodiments, the therapeutic compound is a compound having an activity as “A” in the table below.

## CCN1CCN(c2nc(-n3nc(C)c(-c4cccc(F)c4)c3C(=O)O)sc2SC(C)C)CC1 [Compound B26, 1-(4-(4-ethylpiperazin-1-yl)-5-(isopropylthio)thiazol-2-yl)-4-(3-fluorophenyl)-3-methyl-1H-pyrazole-5-carboxylic acid]
  EC50: > 20 µM

## CC(=O)N1CCN(c2nc(-n3nc(C)c(-c4cccc(F)c4)c3C(=O)O)sc2SC(C)C)CC1 [Compound B27, 1-(4-(4-acetylpiperazin-1-yl)-5-(isopropylthio)thiazol-2-yl)-4-(3-fluorophenyl)-3-methyl-1H-pyrazole-5-carboxylic acid]
  EC50: > 20 µM

## Cc1nn(-c2nc(N3CCC(C)CC3)c(SC(C)C)s2)c(C(=O)O)c1-c1cccc(F)c1 [Compound B28, 4-(3-fluorophenyl)-1-(5-(isopropylthio)-4-(4-methylpiperidin-1-yl)thiazol-2-yl)-3-methyl-1H-pyrazole-5-carboxylic acid]
  EC50: 1 to 5 µM

## Cc1nn(-c2nnc(-c3ccc(C(F)(F)F)cc3)s2)c(C(=O)O)c1-c1cccc(F)c1 [Compound B30, 4-(3-fluorophenyl)-3-methyl-1-(5-(4-(trifluoromethyl)phenyl)-1,3,4-thiadiazol-2-yl)-1H-pyrazole-5-carboxylic acid]
  EC50: > 20 µM

## COCCN(C)c1sc(-n2nc(C)c(-c3cccc(F)c3)c2C(=O)O)nc1-c1ccc(C(F)(F)F)cc1 [Compound B31, 4-(3-fluorophenyl)-1-(5-((2-methoxyethyl)(methyl)amino)-4-(4-(trifluoromethyl)phenyl)thiazol-2-yl)-3-methyl-1H-pyrazole-5-carboxylic acid]
  EC50: 1 to 5 µM

## Cc1nn(-c2nc(N3CCC(C)(C)CC3)c(SC(C)C)s2)c(C(=O)O)c1-c1cccc(F)c1 [Compound B32, 1-(4-(4,4-dimethylpiperidin-1-yl)-5-(isopropylthio)thiazol-2-yl)-4-(3-fluorophenyl)-3-methyl-1H-pyrazole-5-carboxylic acid]
  EC50: < 1 µM

## Cc1nn(-c2nc(N3CCN(C(=O)OC(C)(C)C)CC3)c(SC(C)C)s2)c(C(=O)O)c1-c1cccc(F)c1 [Compound B33, 1-(4-(4-(tert-butoxycarbonyl)piperazin-1-yl)-5-(isopropylthio)thiazol-2-yl)-4-(3-fluorophenyl)-3-methyl-1H-pyrazole-5-carboxylic acid]
  EC50: > 20 µM

## Cc1nn(-c2nc(N3CCC(C(F)(F)F)C3)c(SC(C)C)s2)c(C(=O)O)c1-c1cccc(F)c1 (stereo not drawn) [Compound B34, 4-(3-fluorophenyl)-1-(5-(isopropylthio)-4-(3-(trifluoromethyl)pyrrolidin-1-yl)thiazol-2-yl)-3-methyl-1H-pyrazole-5-carboxylic acid]
  EC50: 1 to 5 µM

## Cc1nn(-c2nc(N3CCNCC3)c(SC(C)C)s2)c(C(=O)O)c1-c1cccc(F)c1 [Compound B35, 4-(3-fluorophenyl)-1-(5-(isopropylthio)-4-(piperazin-1-yl)thiazol-2-yl)-3-methyl-1H-pyrazole-5-carboxylic acid hydrochloric acid salt]
  EC50: > 20 µM

## CC(C)=Cc1sc(-n2nc(C)c(-c3cccc(F)c3)c2C(=O)O)nc1-c1ccc(C(F)(F)F)cc1 [Compound B36, 4-(3-fluorophenyl)-3-methyl-1-(5-(2-methylprop-1-en-1-yl)-4-(4-(trifluoromethyl)phenyl)thiazol-2-yl)-1H-pyrazole-5-carboxylic acid]
  EC50: < 1 µM

## CC(C)=Cc1nc(-n2nc(C)c(-c3cccc(F)c3)c2C(=O)O)sc1-c1ccc(C(F)(F)F)cc1 [Compound B37, 4-(3-fluorophenyl)-3-methyl-1-(4-(2-methylprop-1-en-1-yl)-5-(4-(trifluoromethyl)phenyl)thiazol-2-yl)-1H-pyrazole-5-carboxylic acid]
  EC50: 10 to 25 µM

## Cc1nn(-c2nc(-c3ccc(C(F)(F)F)cc3)c(-c3ccc(C(F)(F)F)cc3)s2)c(C(=O)O)c1-c1cccc(F)c1 [Compound B38, 1-(4,5-bis(4-(trifluoromethyl)phenyl)thiazol-2-yl)-4-(3-fluorophenyl)-3-methyl-1H-pyrazole-5-carboxylic acid]
  EC50: < 1 µM

## Cc1nn(-c2nc(-c3ccc(C(F)(F)F)cc3)c(-c3ccc(C(F)(F)F)cc3)s2)cc1-c1cccc(F)c1 [Compound B39, 2-(4-(3-fluorophenyl)-3-methyl-1H-pyrazol-1-yl)-4,5-bis(4-(trifluoromethyl)phenyl)thiazole]
  EC50: > 20 µM

## Cc1nn(-c2nc(N3CCC(C(C)(C)C)CC3)c(SC(C)C)s2)c(C(=O)O)c1-c1cccc(F)c1 [Compound B40, 1-(4-(4-(tert-butyl)piperidin-1-yl)-5-(isopropylthio)thiazol-2-yl)-4-(3-fluorophenyl)-3-methyl-1H-pyrazole-5-carboxylic acid]
  EC50: < 1 µM

## Cc1nn(-c2nc(N3CCC4(CC3)CC4)c(SC(C)C)s2)c(C(=O)O)c1-c1cccc(F)c1 [Compound B41, 4-(3-fluorophenyl)-1-(5-(isopropylthio)-4-(6-azaspiro[2.5]octan-6-yl)thiazol-2-yl)-3-methyl-1H-pyrazole-5-carboxylic acid]
  EC50: 1 to 5 µM

## COC1(C(F)(F)F)CCN(c2nc(-n3nc(C)c(-c4cccc(F)c4)c3C(=O)O)sc2SC(C)C)CC1 [Compound B42, 4-(3-fluorophenyl)-1-(5-(isopropylthio)-4-(4-methoxy-4-(trifluoromethyl)piperidin-1-yl)thiazol-2-yl)-3-methyl-1H-pyrazole-5-carboxylic acid]
  EC50: < 1 µM

## COc1ccc(-c2nc(-n3nc(C)c(-c4cccc(F)c4)c3C(=O)O)sc2-c2ccc(C(F)(F)F)cc2)cc1 [Compound B43, 4-(3-fluorophenyl)-1-(4-(4-methoxyphenyl)-5-(4-(trifluoromethyl)phenyl)thiazol-2-yl)-3-methyl-1H-pyrazole-5-carboxylic acid]
  EC50: 1 to 5 µM

## COc1ccc(-c2nc(-n3nc(C)c(-c4cccc(F)c4)c3C(=O)O)sc2-c2ccc(OC)cc2)cc1 [Compound B44, 1-(4,5-bis(4-methoxyphenyl)thiazol-2-yl)-4-(3-fluorophenyl)-3-methyl-1H-pyrazole-5-carboxylic acid]
  EC50: 10 to 25 µM

## COc1ccc(-c2sc(-n3nc(C)c(-c4cccc(F)c4)c3C(=O)O)nc2-c2ccc(C(F)(F)F)cc2)cc1 [Compound B45, 4-(3-fluorophenyl)-1-(5-(4-methoxyphenyl)-4-(4-(trifluoromethyl)phenyl)thiazol-2-yl)-3-methyl-1H-pyrazole-5-carboxylic acid]
  EC50: < 1 µM

## Cc1nn(-c2nc(N3CCN(C(C)(C)C)C(=O)C3)c(SC(C)C)s2)c(C(=O)O)c1-c1cccc(F)c1 [Compound B46, 1-(4-(4-(tert-butyl)-3-oxopiperazin-1-yl)-5-(isopropylthio)thiazol-2-yl)-4-(3-fluorophenyl)-3-methyl-1H-pyrazole-5-carboxylic acid]
  EC50: > 20 µM

## CNC(=O)CCc1sc(-n2nc(C)c(-c3cccc(F)c3)c2C(=O)O)nc1-c1ccc(C(F)(F)F)cc1 [Compound B47, 4-(3-fluorophenyl)-3-methyl-1-(5-(3-(methylamino)-3-oxopropyl)-4-(4-(trifluoromethyl)phenyl)thiazol-2-yl)-1H-pyrazole-5-carboxylic acid]
  EC50: > 20 µM

## COCCOC1(C(F)(F)F)CCN(c2nc(-n3nc(C)c(-c4cccc(F)c4)c3C(=O)O)sc2SC(C)C)CC1 [Compound B48, 4-(3-fluorophenyl)-1-(5-(isopropylthio)-4-(4-(2-methoxyethoxy)-4-(trifluoromethyl)piperidin-1-yl)thiazol-2-yl)-3-methyl-1H-pyrazole-5-carboxylic acid]
  EC50: 1 to 5 µM

## COCCNC(=O)c1ccc(-c2sc(-n3nc(C)c(-c4cccc(F)c4)c3C(=O)O)nc2-c2ccc(C(F)(F)F)cc2)cc1 [Compound B49, 4-(3-fluorophenyl)-1-(5-(4-((2-methoxyethyl)carbamoyl)phenyl)-4-(4-(trifluoromethyl)phenyl)thiazol-2-yl)-3-methyl-1H-pyrazole-5-carboxylic acid]
  EC50: > 20 µM

## COCCN(C)C(=O)c1ccc(-c2sc(-n3nc(C)c(-c4cccc(F)c4)c3C(=O)O)nc2-c2ccc(C(F)(F)F)cc2)cc1 [Compound B50, 4-(3-fluorophenyl)-1-(5-(4-((2-methoxyethyl)(methyl)carbamoyl)phenyl)-4-(4-(trifluoromethyl)phenyl)thiazol-2-yl)-3-methyl-1H-pyrazole-5-carboxylic acid]
  EC50: > 20 µM

## COCC(=O)Nc1ccc(-c2sc(-n3nc(C)c(-c4cccc(F)c4)c3C(=O)O)nc2-c2ccc(C(F)(F)F)cc2)cc1 [Compound B51, 4-(3-fluorophenyl)-1-(5-(4-(2-methoxyacetamido)phenyl)-4-(4-(trifluoromethyl)phenyl)thiazol-2-yl)-3-methyl-1H-pyrazole-5-carboxylic acid]
  EC50: 10 to 25 µM

## COCCOCC(=O)Nc1ccc(-c2sc(-n3nc(C)c(-c4cccc(F)c4)c3C(=O)O)nc2-c2ccc(C(F)(F)F)cc2)cc1 [Compound B52, 4-(3-fluorophenyl)-1-(5-(4-(2-(2-methoxyethoxy)acetamido)phenyl)-4-(4-(trifluoromethyl)phenyl)thiazol-2-yl)-3-methyl-1H-pyrazole-5-carboxylic acid]
  EC50: 10 to 25 µM

## COCCNC(=O)CCc1sc(-n2nc(C)c(-c3cccc(F)c3)c2C(=O)O)nc1-c1ccc(C(F)(F)F)cc1 [Compound B53, 4-(3-fluorophenyl)-1-(5-(3-((2-methoxyethyl)amino)-3-oxopropyl)-4-(4-(trifluoromethyl)phenyl)thiazol-2-yl)-3-methyl-1H-pyrazole-5-carboxylic acid]
  EC50: > 20 µM
